Assay results from ChEMBL document CHEMBL1201862, “PubChem BioAssay data set” (2004).
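All cell lines were grown in 96-well plates and treated with compound for 48 hours. The concentration for 50% growth inhibition is given as GI50.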 Active and inactive are the calls of the source. Rule as the data show it: active = GI50 up to about 1.1 µM and inactive = higher.

Experiments:
Assay in all cases: NCI anticancer screen, dose series, 48 h
SK-MEL-2 = tested on: SK-MEL-2
RPMI-8226 = tested on: RPMI-8226
LOX IMVI = tested on: LOX IMVI
SF-268 = tested on: SF-268
PC-3 = tested on: PC-3
A549 = tested on: A549
MCF7 = tested on: MCF7
MDA-MB-231 = tested on: MDA-MB-231
SK-MEL-5 = tested on: SK-MEL-5
U-251 = tested on: U-251
CAKI-1 = tested on: CAKI-1
HCC 2998 = tested on: HCC 2998
T47D = tested on: T47D
NCI-H23 = tested on: NCI-H23
SK-MEL-28 = tested on: SK-MEL-28
COLO 205 = tested on: COLO 205
HCT-15 = tested on: HCT-15
UACC-62 = tested on: UACC-62
OVCAR-3 = tested on: OVCAR-3

SMILES: CN(C)c1ccc(/C=N\NC(=O)Nc2cccc3ccccc23)cc1
- GI50 (SK-MEL-2): 2.9 µM (inactive)
- GI50 (RPMI-8226): 4.28 µM (inactive)
- GI50 (LOX IMVI): 4.15 µM (inactive)
- GI50 (SF-268): 13 µM (inactive)
- GI50 (PC-3): 6.62 µM (inactive)
- GI50 (A549): 9.57 µM (inactive)
- GI50 (MCF7): 3.86 µM (inactive)
- GI50 (MDA-MB-231): 12.3 µM (inactive)
- GI50 (SK-MEL-5): 3.97 µM (inactive)
- GI50 (U-251): 5.82 µM (inactive)
- GI50 (CAKI-1): 3.25 µM (inactive)
- GI50 (HCC 2998): 9.51 µM (inactive)
- GI50 (T47D): 2.73 µM (inactive)
- GI50 (NCI-H23): 4.75 µM (inactive)
- GI50 (SK-MEL-28): 19.1 µM (inactive)
- GI50 (COLO 205): 4.99 µM (inactive)
- GI50 (HCT-15): 1.53 µM

SMILES: O=C(CC(=O)N1N=C(N2CCCCC2)CC1c1ccccc1)Nc1ccccc1 (stereo unspecified)
- GI50 (SK-MEL-2): > 100 µM (inactive)
- GI50 (LOX IMVI): > 100 µM (inactive)
- GI50 (SF-268): > 100 µM (inactive)
- GI50 (UACC-62): > 100 µM (inactive)
- GI50 (OVCAR-3): > 100 µM (inactive)
- GI50 (PC-3): > 100 µM (inactive)
- GI50 (A549): > 100 µM (inactive)
- GI50 (MCF7): > 100 µM (inactive)
- GI50 (MDA-MB-231): > 100 µM (inactive)
- GI50 (SK-MEL-5): > 100 µM (inactive)
- GI50 (U-251): > 100 µM (inactive)
- GI50 (CAKI-1): > 100 µM (inactive)
- GI50 (HCC 2998): > 100 µM (inactive)
- GI50 (T47D): > 100 µM (inactive)
- GI50 (NCI-H23): > 100 µM (inactive)
- GI50 (SK-MEL-28): > 100 µM (inactive)
- GI50 (COLO 205): > 100 µM (inactive)
- GI50 (HCT-15): > 100 µM

SMILES: COC(=O)c1c(O)ccc2c1c1c(n2-c2ccc(OC)cc2)C(=O)c2ccccc2C1=O
- GI50 (SK-MEL-2): 26.1 µM (inactive)
- GI50 (RPMI-8226): 9.73 µM (inactive)
- GI50 (LOX IMVI): 21.7 µM (inactive)
- GI50 (SF-268): 14.8 µM (inactive)
- GI50 (OVCAR-3): 22.9 µM (inactive)
- GI50 (PC-3): 20.7 µM (inactive)
- GI50 (A549): 10.1 µM (inactive)
- GI50 (MCF7): 16.6 µM (inactive)
- GI50 (MDA-MB-231): 16.5 µM (inactive)
- GI50 (SK-MEL-5): 44.3 µM (inactive)
- GI50 (U-251): 13 µM (inactive)
- GI50 (CAKI-1): 14.1 µM (inactive)
- GI50 (HCC 2998): 3.62 µM (inactive)
- GI50 (T47D): 11.7 µM (inactive)
- GI50 (NCI-H23): 36.7 µM (inactive)
- GI50 (SK-MEL-28): 29.9 µM (inactive)
- GI50 (COLO 205): 1.94 µM (inactive)
- GI50 (HCT-15): 18.3 µM

SMILES: CC1CC/C(=C\c2ccc(Cl)cc2)c2nc(N)c(C#N)c(-c3ccc(Cl)cc3)c21 (stereo unspecified)
- GI50 (SK-MEL-2): 66.1 µM (inactive)
- GI50 (RPMI-8226): 19.7 µM (inactive)
- GI50 (LOX IMVI): > 100 µM (inactive)
- GI50 (UACC-62): 20.5 µM (inactive)
- GI50 (OVCAR-3): 47.1 µM (inactive)
- GI50 (PC-3): 13.8 µM (inactive)
- GI50 (A549): 34.8 µM (inactive)
- GI50 (MCF7): 22.8 µM (inactive)
- GI50 (MDA-MB-231): > 100 µM (inactive)
- GI50 (SK-MEL-5): 41.8 µM (inactive)
- GI50 (U-251): 17.7 µM (inactive)
- GI50 (CAKI-1): 21.8 µM (inactive)
- GI50 (HCC 2998): 26.1 µM (inactive)
- GI50 (T47D): 55.3 µM (inactive)
- GI50 (NCI-H23): 30.3 µM (inactive)
- GI50 (SK-MEL-28): 49.4 µM (inactive)
- GI50 (COLO 205): 41.4 µM (inactive)
- GI50 (HCT-15): 8.47 µM
